In publication PMC10962542, “Inhibition of Aurora‐A/N‐Myc Protein–Protein Interaction Using Peptidomimetics: Understanding the Role of Peptide Cyclization” (Chembiochem, 2023):
Marks after values point to notes of the source that are not given here. *1 amine or outer side, *2 acyl side, *3 side chain or, on linkers, in order; H or OH if unused. Where a SMILES comes first, the peptide text is derived from it. Bridges are numbered along the chain shown (N, C = ends). Maleimide(3,4-diyl) = O=C1NC(=O)C([*:2])=C1[*:1]

Key:
[1] = biological target: T1, N‐Myc/Aurora‐A interaction (Aurora‐A122‐403‐C290A/C393A) (Homo sapiens, UniProt O14965, C290A/C393A); experiment: competition fluorescence anisotropy (FA) assay against fluorescein labelled N‐Myc61‐89; assay type: binding; settings: SD; note: equilibrated 2 h at room temperature
T1 construct: Aurora‐A 122‐403‐C290A/C393A protein was produced as described previously; made in house
T1 sequence (O14965 122-403 C290A/C393A): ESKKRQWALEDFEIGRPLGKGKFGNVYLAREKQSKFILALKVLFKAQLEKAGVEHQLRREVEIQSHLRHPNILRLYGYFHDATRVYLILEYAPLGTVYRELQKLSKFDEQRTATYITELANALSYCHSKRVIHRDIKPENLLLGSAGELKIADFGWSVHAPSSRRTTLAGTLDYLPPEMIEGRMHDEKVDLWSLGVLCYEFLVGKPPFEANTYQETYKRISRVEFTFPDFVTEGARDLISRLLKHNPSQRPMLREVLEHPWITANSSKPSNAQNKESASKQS

[2] = circular dichroism (CD) spectroscopy; assay type: physicochemical; settings: 150 mM NaCl, 5 mM MgCl2, pH 7.5, 5 °C, n=2, free‐thiol (red) samples with 5 mol equivalents TCEP; for MRE222 (mean residue ellipticity at 222 nm): 25 mM Tris, mean ± SD, SD; for % Helicity (estimated): from MRE222 by equation 7, 25 mM Tris
In short: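 Peptides at 30–120 μM in 25 mM Tris, 150 mM NaCl, 5 mM MgCl2, pH 7.5 (plus 5 mol eq. TCEP for free sulfhydryl peptides) were scanned in duplicate at 5 °C from 290 to 180 nm, 1 mm pathlength. Buffer-subtracted ellipticity gave mean residue ellipticity, and % helicity was estimated from MRE at 222 nm.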

circular dichroism = experiment: circular dichroism; parameters: unit not given here; settings: 25 mM Tris, 150 mM NaCl, 5 mM MgCl2; pH 7.5; 5 °C; 30-120 uM

| Molecule | IC50 [1] | MRE222 (mean residue ellipticity at 222 nm) [2] | % Helicity (estimated) [2] | helicity (circular dichroism) |
| --- | --- | --- | --- | --- |
| CSCC[C@H](NC(=O)[C@H](CS)NC(=O)[C@@H](NC(=O)[C@@H](NC(=O)[C@H](Cc1c[nH]c2ccccc12)NC(=O)[C@H](CS)NC(=O)[C@@H]1CCCN1C(=O)[C@@H]1CCCN1C(=O)[C@H](CCC(=O)O)NC(=O)[C@H](CO)NC(=O)[C@H](CO)NC(=O)[C@H](Cc1c[nH]cn1)NC(=O)[C@H](CCC(=O)O)NC(=O)[C@H](C)NC(=O)[C@H](Cc1ccccc1)NC(=O)CNC(=O)[C@H](CCCNC(=N)N)NC(=O)[C@H](CO)NC(=O)[C@@H]1CCCN1C(=O)[C@H](CO)NC(=O)[C@H](CC(C)C)NC(C)=O)C(C)C)[C@@H](C)O)C(=O)N[C@@H](CC(C)C)C(=O)N[C@@H](CC(C)C)C(=O)N[C@@H](CCC(=O)O)C(=O)N[C@@H](CC(N)=O)C(=O)N[C@@H](CCC(=O)O)C(=O)N[C@@H](CC(C)C)C(=O)N[C@@H](Cc1c[nH]c2ccccc12)C(=O)NCC(N)=O [N-Myc 61-89S76C/E80C red] (Ac-LSPSRGFAEHSSEPPCWVTCMLLENELWG-NH2) | 140 ± 18 µM | -2428 ± 25 deg cm^−1 dmol^−1 res^−1 | 7 ± 1% | – |
| CSCC[C@@H]1NC(=O)[C@H](CCC(=O)O)NC(=O)[C@@H](NC(=O)[C@@H](NC(=O)[C@H](Cc2c[nH]c3ccccc23)NC(=O)[C@H](CO)NC(=O)[C@@H]2CCCN2C(=O)[C@@H]2CCCN2C(=O)[C@H](CCC(=O)O)NC(=O)[C@H](CO)NC(=O)[C@H](CO)NC(=O)[C@H](Cc2c[nH]cn2)NC(=O)[C@H](CCC(=O)O)NC(=O)[C@H](C)NC(=O)[C@H](Cc2ccccc2)NC(=O)CNC(=O)[C@H](CCCNC(=N)N)NC(=O)[C@H](CO)NC(=O)[C@@H]2CCCN2C(=O)[C@H](CO)NC(=O)[C@H](CC(C)C)NC(C)=O)C(C)C)CSSC[C@@H](C(=O)N[C@@H](CCC(=O)O)C(=O)N[C@@H](CC(N)=O)C(=O)N[C@@H](CCC(=O)O)C(=O)N[C@@H](CC(C)C)C(=O)N[C@@H](Cc2c[nH]c3ccccc23)C(=O)NCC(N)=O)NC(=O)[C@H](CC(C)C)NC1=O [N-Myc 61-89T79C/L83C ox] (Ac-LSPSRGFAEHSSEPPSWVCEMLCENELWG-NH2; disulfide 19-23) | 75 ± 8 µM | -1951 ± 84 deg cm^−1 dmol^−1 res^−1 | 6 ± 1% | – |
| CSCC[C@H](NC(=O)[C@H](CCC(=O)O)NC(=O)[C@@H](NC(=O)[C@@H](NC(=O)[C@H](Cc1c[nH]c2ccccc12)NC(=O)[C@H](CO)NC(=O)[C@@H]1CCCN1C(=O)[C@@H]1CCCN1C(=O)[C@H](CCC(=O)O)NC(C)=O)C(C)C)[C@@H](C)O)C(=O)N[C@@H](CC(C)C)C(=O)N[C@@H](CC(C)C)C(=O)N[C@@H](CCC(=O)O)C(=O)N[C@@H](CC(N)=O)C(=O)N[C@@H](CCC(=O)O)C(=O)N[C@@H](CC(C)C)C(=O)N[C@@H](Cc1c[nH]c2ccccc12)C(=O)NCC(N)=O [N‐Myc73‐89] | – | −4079±71 deg cm^−1 dmol^−1 res^−1 | 13±1% | -4080 |
| CSCC[C@H](NC(=O)[C@H](CCC(=O)O)NC(=O)[C@@H](NC(=O)[C@@H](NC(=O)[C@H](Cc1c[nH]c2ccccc12)NC(=O)[C@H](CO)NC(=O)[C@@H]1CCCN1C(=O)[C@@H]1CCCN1C(=O)[C@H](CO)NC(C)=O)C(C)C)[C@@H](C)O)C(=O)N[C@@H](CC(C)C)C(=O)N[C@@H](CC(C)C)C(=O)N[C@@H](CCC(=O)O)C(=O)N[C@@H](CC(N)=O)C(=O)N[C@@H](CCC(=O)O)C(=O)N[C@@H](CC(C)C)C(=O)N[C@@H](Cc1c[nH]c2ccccc12)C(=O)NCC(N)=O [N‐Myc73‐89‐E73S] | 217 ± 13 µM | −5541±66 deg cm^−1 dmol^−1 res^−1 | 17±1% | -5540 |
| CSCC[C@H](NC(=O)[C@H](CCC(=O)O)NC(=O)[C@@H](NC(=O)[C@@H](NC(=O)[C@H](Cc1c[nH]c2ccccc12)NC(=O)[C@H](CO)NC(=O)[C@@H]1CCCN1C(=O)[C@@H]1CCCN1C(=O)[C@H](COP(=O)(O)O)NC(C)=O)C(C)C)[C@@H](C)O)C(=O)N[C@@H](CC(C)C)C(=O)N[C@@H](CC(C)C)C(=O)N[C@@H](CCC(=O)O)C(=O)N[C@@H](CC(N)=O)C(=O)N[C@@H](CCC(=O)O)C(=O)N[C@@H](CC(C)C)C(=O)N[C@@H](Cc1c[nH]c2ccccc12)C(=O)NCC(N)=O [N‐Myc73‐89‐E73pS] | – | −5394±235 deg cm^−1 dmol^−1 res^−1 | 16±1% | -5390 |

Continued, in another order:

| IC50 [1] | MRE222 (mean residue ellipticity at 222 nm) [2] | % Helicity (estimated) [2] | Molecule | helicity (circular dichroism) |
| --- | --- | --- | --- | --- |
| 199 ± 13 µM | −4235±181 deg cm^−1 dmol^−1 res^−1 | 13±1% | CSCC[C@H](NC(=O)[C@H](CCC(=O)O)NC(=O)[C@@H](NC(=O)[C@@H](NC(=O)[C@H](Cc1c[nH]c2ccccc12)NC(=O)[C@H](CO)NC(=O)[C@@H]1CCCN1C(=O)[C@@H]1CCCN1C(=O)[C@H](CCC(=O)O)NC(C)=O)C(C)C)[C@@H](C)O)C(=O)N[C@@H](CC(C)C)C(=O)N[C@@H](CC(C)C)C(=O)N[C@@H](CCC(=O)O)C(=O)N[C@@H](CC(N)=O)C(=O)N[C@@H](CCC(=O)O)C(=O)N[C@@H](CC(C)C)C(=O)N[C@@H](Cc1c[nH]c2ccccc12)C(=O)NCC(=O)N[C@@H](CO)C(=O)N1CCC[C@H]1C(=O)N[C@@H](C)C(=O)N[C@@H](CCC(=O)O)C(=O)N[C@@H](CCC(=O)O)C(N)=O [N‐Myc73‐94] | -4240 |
| 111 ± 18 µM | – | – | CSCC[C@H](NC(=O)[C@H](CCC(=O)O)NC(=O)[C@@H](NC(=O)[C@@H](NC(=O)[C@H](Cc1c[nH]c2ccccc12)NC(=O)[C@H](CO)NC(=O)[C@@H]1CCCN1C(=O)[C@@H]1CCCN1C(=O)[C@H](CCC(=O)O)NC(C)=O)C(C)C)[C@@H](C)O)C(=O)N[C@@H](CC(C)C)C(=O)N[C@@H](CC(C)C)C(=O)N[C@@H](CCC(=O)O)C(=O)N[C@@H](CC(N)=O)C(=O)N[C@H]1CSC2=C(SC[C@@H](C(=O)N3CCC[C@H]3C(=O)N[C@@H](C)C(=O)N[C@@H](CCC(=O)O)C(=O)N[C@@H](CCC(=O)O)C(N)=O)NC(=O)CNC(=O)[C@H](Cc3c[nH]c4ccccc34)NC(=O)[C@H](CC(C)C)NC1=O)C(=O)NC2=O [N‐Myc73‐94‐E86C/S90C (mal)] (Ac-EPPSWVTEMLLENCLWGCPAEE-NH2; linker 14-18 via Maleimide(3,4-diyl)) | -5720 |
| 172 ± 23 µM | −7454±130 deg cm^−1 dmol^−1 res^−1 | 21±1% | CSCC[C@H](NC(=O)[C@H](CCC(=O)O)NC(=O)[C@@H](NC(=O)[C@@H](NC(=O)[C@H](Cc1c[nH]c2ccccc12)NC(=O)[C@H](CO)NC(=O)[C@@H]1CCCN1C(=O)[C@@H]1CCCN1C(=O)[C@H](CCC(=O)O)NC(C)=O)C(C)C)[C@@H](C)O)C(=O)N[C@@H](CC(C)C)C(=O)N[C@@H](CC(C)C)C(=O)N[C@@H](CCC(=O)O)C(=O)N[C@@H](CC(N)=O)C(=O)N[C@H]1CSSC[C@@H](C(=O)N2CCC[C@H]2C(=O)N[C@@H](C)C(=O)N[C@@H](CCC(=O)O)C(=O)N[C@@H](CCC(=O)O)C(N)=O)NC(=O)CNC(=O)[C@H](Cc2c[nH]c3ccccc23)NC(=O)[C@H](CC(C)C)NC1=O [N‐Myc73‐94‐E86C/S90C (ox)] (Ac-EPPSWVTEMLLENCLWGCPAEE-NH2; disulfide 14-18) | -7450 |
| 203 ± 4 µM | −6397±64^[e] deg cm^−1 dmol^−1 res^−1 | 18±1% | CSCC[C@H](NC(=O)[C@H](CCC(=O)O)NC(=O)[C@@H](NC(=O)[C@@H](NC(=O)[C@H](Cc1c[nH]c2ccccc12)NC(=O)[C@H](CO)NC(=O)[C@@H]1CCCN1C(=O)[C@@H]1CCCN1C(=O)[C@H](CCC(=O)O)NC(C)=O)C(C)C)[C@@H](C)O)C(=O)N[C@@H](CC(C)C)C(=O)N[C@@H](CC(C)C)C(=O)N[C@@H](CCC(=O)O)C(=O)N[C@@H](CC(N)=O)C(=O)N[C@@H](CS)C(=O)N[C@@H](CC(C)C)C(=O)N[C@@H](Cc1c[nH]c2ccccc12)C(=O)NCC(=O)N[C@@H](CS)C(=O)N1CCC[C@H]1C(=O)N[C@@H](C)C(=O)N[C@@H](CCC(=O)O)C(=O)N[C@@H](CCC(=O)O)C(N)=O [N‐Myc73‐94‐E86C/S90C (red)] (Ac-EPPSWVTEMLLENCLWGCPAEE-NH2) | -6400 |
| 49 ± 5 µM | – | – | CSCC[C@H](NC(=O)[C@H](CCC(=O)O)NC(=O)[C@@H](NC(=O)[C@@H](NC(=O)[C@H](Cc1c[nH]c2ccccc12)NC(=O)[C@H](CO)NC(=O)[C@@H]1CCCN1C(=O)[C@@H]1CCCN1C(=O)[C@H](CCC(=O)O)NC(C)=O)C(C)C)[C@@H](C)O)C(=O)N[C@@H](CC(C)C)C(=O)N[C@@H](CC(C)C)C(=O)N[C@@H](CCC(=O)O)C(=O)N[C@H]1CSC2=C(SC[C@@H](C(=O)N[C@@H](CO)C(=O)N3CCC[C@H]3C(=O)N[C@@H](C)C(=O)N[C@@H](CCC(=O)O)C(=O)N[C@@H](CCC(=O)O)C(N)=O)NC(=O)[C@H](Cc3c[nH]c4ccccc34)NC(=O)[C@H](CC(C)C)NC(=O)[C@H](CCC(=O)O)NC1=O)C(=O)NC2=O [N‐Myc73‐94‐N85C/G89C (mal)] (Ac-EPPSWVTEMLLECELWCSPAEE-NH2; linker 13-17 via Maleimide(3,4-diyl)) | -7220 |
| 79 ± 4 µM | −4886±55 deg cm^−1 dmol^−1 res^−1 | 14±1% | Ac-EPPSWVTEMLLENELWGSPAEEDAF-NH2 [N‐Myc73‐97] | – |
